Publication PMC3109356 (Bioorganic & medicinal chemistry letters, 2011)

Legend:
Format in all cases: binding
MBP-MshC = MBP-MshC (Mycobacterium tuberculosis, UniProt P9WJM9); assay: NOESY / transferred NOESY in the presence of MBP-MshC; conditions: free in solution vs in the presence of MBP-MshC
[1] = biological target: M. tuberculosis MshC (MBP-MshC) (Mycobacterium tuberculosis, UniProt P9WJM9); assay: 1H STD NMR in the presence of MBP-MshC; conditions: for STD relative enhancement for H-2″ / STD relative enhancement for H-3″: normalized to adenine H-2, 20 μM MBP-MshC, 900 μM ligand
soluble MBP tag = soluble MBP tag (Escherichia coli, UniProt P0AEX9); assay: 1H STD NMR with soluble MBP tag as control
MshC = MshC (Mycobacterium tuberculosis, UniProt P9WJM9); assay: isothermal titration calorimetry; conditions: ITC
MshC, sequence (P9WJM9 whole entry): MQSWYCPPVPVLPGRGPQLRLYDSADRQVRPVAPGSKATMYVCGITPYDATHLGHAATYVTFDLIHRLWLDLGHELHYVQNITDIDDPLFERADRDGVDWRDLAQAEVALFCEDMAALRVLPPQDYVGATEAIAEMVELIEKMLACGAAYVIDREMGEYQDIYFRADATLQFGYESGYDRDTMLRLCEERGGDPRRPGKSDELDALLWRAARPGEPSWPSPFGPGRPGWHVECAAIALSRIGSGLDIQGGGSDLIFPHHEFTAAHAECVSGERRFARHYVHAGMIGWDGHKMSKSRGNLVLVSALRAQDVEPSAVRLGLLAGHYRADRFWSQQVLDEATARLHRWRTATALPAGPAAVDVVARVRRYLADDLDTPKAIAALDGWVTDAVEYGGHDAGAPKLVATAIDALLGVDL

M. tuberculosis MshC (MBP-MshC), sequence (P9WJM9 whole entry): as above
MBP-MshC, sequence (P9WJM9 whole entry): as above

Compound | NOESY/trNOESY cross peaks (binding) (MBP-MshC) | STD relative enhancement for H-2″ [1] [%] | STD relative enhancement for H-3″ [1] | binding to the soluble MBP tag (soluble MBP tag) | heats of binding (MshC) | signal-to-noise (S/N) ratio in the STD difference spectra ([1]; in the presence of MshC, reference spectra S/N 170)
Nc1ncnc2c1ncn2[C@@H]1O[C@H](COS(=O)(=O)NC(=O)[C@@H](N)CS)[C@@H](O)[C@H]1O [Compound 1, 5′-O-[N-(L-cysteinyl)sulfamoyl] adenosine] | cross peaks changed in sign from positive to negative | 21 | 10% | No binding was observed |  | 
Nc1ncnc2c1ncn2[C@@H]1O[C@H](COS(=O)(=O)NC(=O)[C@@H](N)CC(=O)O)[C@@H](O)[C@H]1O [Compound 3] | did not contain any cross peaks | 12 | no effect could be observed | No binding was observed | No heats of binding were detected | 20
